Experimental data reported in patent publication US12195558B2, “Targeted delivery system and methods of use therefor” (SANFORD BURNHAM PREBYS MEDICAL DISCOVERY INSTITUTE, priority 2015, dated 2025).
Bridge positions count the residues as written; N and C are the ends. Ends that are not written are not given here.

Tests used:
[1] = tested on: orthotopic MCF10CA1a breast tumor xenografts; assay: Tumor homing and penetration of peptide-conjugated nanoworms (NWs); format: in vivo, athymic nude mice
Description: FIG. 12 is a fluorescent micrograph showing tumor homing of linear TT1-NWs. Tumor-bearing mice were intravenously injected with FAM-LinTT1-coated NWs (7.5 mg iron/kg) and allowed to circulate for 5 hours. The mice were perfused through the heart with PBS, and tumors and organs were collected and processed for fluorescence microscopy. The left panel is a representative confocal microscopy image from tumors in mice. […]
FIG. 13 is a bar graph showing quantification of the homing of various peptide-coated NWs. […] Quantification of fluorescence was done with ImageJ software (available from the website of the United States National Institutes of Health). In addition to the tumors, NWs were detected in the liver and spleen, which non-specifically capture nanoparticles regardless of their peptide coating. […]
FIG. 15 is a bar graph showing tumor accumulation of NWs coated with chimeric peptides consisting of a homing peptide and pro-apoptotic peptide. Quantification of NW fluorescence was done with ImageJ software. […]
In vivo peptide homing. […] After 5-6 hours of NW circulation the mice were euthanized by cardiac perfusion with PBS under anesthesia, and tumors and organs were dissected and analyzed for particle homing.
Immunofluorescence. […] The primary antibody was detected with Alexa 594-labeled goat anti-rat secondary antibody (1:1000; Molecular Probes). […]

[2] = target: T1, p32 (Homo sapiens, UniProt Q07021); assay: Fluorescence polarization assay with synthetic peptides on p32; format: binding; conditions: for inhibition of binding of labeled TT1 to P32 by unlabeled peptide: competition, fluorescence polarization
T1 construct: made in house; host or cells: E. coli Rosetta-gami-2 (Novagen)
T1 sequence (Q07021 74-282): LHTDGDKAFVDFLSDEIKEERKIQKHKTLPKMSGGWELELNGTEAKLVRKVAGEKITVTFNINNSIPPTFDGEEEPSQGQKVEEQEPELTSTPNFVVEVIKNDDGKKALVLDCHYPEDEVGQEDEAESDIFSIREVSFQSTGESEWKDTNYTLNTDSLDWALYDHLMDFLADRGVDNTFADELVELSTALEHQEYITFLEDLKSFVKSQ
From the text: (§1) FIGS. 4A and 4B are plots showing a comparison of the binding of LyP-1 (SEQ ID NO: 7; diamonds) and TT1 (SEQ ID NO: 3; squares) to p32 in a fluorescence polarization assay. […] NRP-1 was used as a control protein.
FIG. 5 is a plot showing that P32-TT1 (CKRGARSTC; SEQ ID NO: 3) and LyP-1 (SEQ ID NO: 7) peptides competed for binding to the P32 protein. […] Squares: p32-TT1; Diamonds: LyP-1; X: RPARPAR peptide (SEQ ID NO: 14).
(§2) An exemplary RGXRS (SEQ ID NO: 4) pentapeptide motif-containing peptide with the sequence CKRGARSTC (SEQ ID NO: 3) was designated as the […] and used it for further studies. Mutating any amino acid in the consensus motif of TT1 abolished the phage binding to p32. This new peptide conferred about 15-fold stronger phage binding to immobilized p32 protein than did the canonical LyP-1 peptide.

[3] = target: T1, p32; assay: Binding of peptide-displaying T7 phage to p32-coated magnetic beads; conditions: p32-coated magnetic beads
Description: FIG. 10 is a bar graph showing that the p32 binding of the RGXR(S/T) motif (SEQ ID NOs: 4 and 5) in the exemplary TT1 peptide (SEQ ID NO: 3) was not dependent on the cyclic structure and compatible with flanking sequences. Phage clones displaying the indicated peptides were incubated in p32-coated magnetic microbeads. After washing to remove non-bound phage, specifically bound phage were quantified.
Milligram quantities of recombinant His-tagged p32 protein were expressed in E. coli and coated onto Ni-NTA magnetic beads, and biopanning was performed using two T7 bacteriophage peptide libraries (cyclic Cx7C and linear X7 library).
Variant peptide-encoding genomic DNA of phage was sequenced and analyzed for the presence of consensus motifs. After two rounds of selection, both linear and cyclic libraries converged to contain an RGXRS (SEQ ID NO: 4) pentapeptide motif (see FIG. 2B). The binding of RGXRS (SEQ ID NO: 4)-displaying phage to p32 was specific, as these phage bound to magnetic beads coated with p32 protein and not to beads coated with ligand-binding b1b2 domain of the cell and tissue penetration receptor NRP-1 or BSA (see FIG. 3).
as §2

[4] = target: NRP-1 (Homo sapiens, UniProt O14786); assay: Fluorescence polarization assay on NRP-1 (control protein); format: binding; conditions: NRP-1 as control protein
Chain of NRP-1 (O14786 22-923): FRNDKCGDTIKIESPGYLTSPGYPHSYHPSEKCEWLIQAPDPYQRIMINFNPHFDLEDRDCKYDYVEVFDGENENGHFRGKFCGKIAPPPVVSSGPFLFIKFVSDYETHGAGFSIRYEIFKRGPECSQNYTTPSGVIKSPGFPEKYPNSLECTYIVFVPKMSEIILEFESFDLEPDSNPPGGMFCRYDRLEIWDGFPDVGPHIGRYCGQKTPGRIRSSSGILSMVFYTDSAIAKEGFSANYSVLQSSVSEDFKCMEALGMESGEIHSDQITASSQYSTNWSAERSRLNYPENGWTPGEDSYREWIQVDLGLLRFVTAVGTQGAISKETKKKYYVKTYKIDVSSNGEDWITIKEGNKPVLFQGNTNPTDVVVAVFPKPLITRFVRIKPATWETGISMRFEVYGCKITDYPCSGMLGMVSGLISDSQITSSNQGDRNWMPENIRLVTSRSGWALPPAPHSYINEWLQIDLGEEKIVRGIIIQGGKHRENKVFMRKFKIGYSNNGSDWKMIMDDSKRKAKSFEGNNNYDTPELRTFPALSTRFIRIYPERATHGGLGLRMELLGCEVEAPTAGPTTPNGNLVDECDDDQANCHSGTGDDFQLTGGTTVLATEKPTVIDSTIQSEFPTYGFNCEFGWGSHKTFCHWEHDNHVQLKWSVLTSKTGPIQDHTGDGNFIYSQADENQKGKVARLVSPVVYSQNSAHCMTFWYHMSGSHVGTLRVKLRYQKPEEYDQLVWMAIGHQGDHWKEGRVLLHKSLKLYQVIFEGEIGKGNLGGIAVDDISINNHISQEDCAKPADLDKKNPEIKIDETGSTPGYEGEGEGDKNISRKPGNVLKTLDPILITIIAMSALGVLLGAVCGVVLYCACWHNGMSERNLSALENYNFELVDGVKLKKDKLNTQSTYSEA
From the text: as §1

[5] = tested on: mitochondrial membranes; conditions: significantly less than the concentration required to kill eukaryotic cells; cited from earlier work
[6] = tested on: orthotopic breast tumors; conditions: systemically administered; cited from earlier work
[7] = tested on: atherosclerotic plaques; assay: Homing to atherosclerotic plaques in ApoE null mice on high-fat diet; format: in vivo; conditions: 100 mg FAM labeled peptide i.v., one hour
Description: ApoE null mice that had been kept on a high-fat diet were intravenously injected with […] of the FAM labeled peptides. One hour later, the mice were perfused through the heart under anesthesia, and tissues were collected. The panels show accumulation of FAM labeled peptides visualized with UV excitation. The center two and right two panels show atherosclerotic aortas that were sectioned at the aortic root level and examined by confocal microscopy.

AKRGARSTA [LinTT1]
tumor homing of peptide-coated NWs (in words) ([1]; 7.5 mg iron/kg i.v., 5 hours circulation): most effective peptide in the nanoparticle context
affinity for p32 (in words) ([2]; method not stated at the place): low affinity for the receptor
phage binding to p32 (in words) ([3]; listed as TT1 Peptide variant): retains the binding activity
phage binding to p32 (in words) ([3]; listed as TT1 variant): retained the binding activity

RPARPAR [reference compound]
inhibition of binding of labeled TT1 to P32 by unlabeled peptide [2]: not
binding to NRP-1 in fluorescence polarization assay (in words) [4]: avidly bound to NRP-1

KLAKLAKKLAKLAK (also: D-amino acids, positions not given here) [D(KLAKLAK)2]
concentration inducing marked mitochondrial swelling [5]: 10 µM

CRGDKGPDC [iRGD]
homing to and penetration of orthotopic breast tumors [6]: efficiently home to and penetrate orthotopic breast tumors in vivo

CGNKRTRGC (disulfide 1-9 (inferred)) [LyP-1, reference compound]
tumor homing and extravascular penetration of homing peptide-D[KLAKLAK]2 NWs (in words) ([1]; homing peptide-D[KLAKLAK]2 chimeric peptide on NWs): more effective than the CGKRK
inhibition of binding of labeled TT1 to P32 by unlabeled peptide [2]: could be inhibited
homing to and penetration into plaque tissue [7]: seen inside plaques
homing to and penetration of orthotopic breast tumors [6]: efficiently home to and penetrate orthotopic breast tumors in vivo
